Test results from ChEMBL document CHEMBL3132818, “Heterocycle-fused lupane triterpenoids inhibit Leishmania donovani amastigotes” (Medchemcomm, 2014).

How the values were obtained:
[1] = system: Leishmania donovani; experiment: Antileishmanial activity against axenic amastigote stage of Leishmania donovani MHOM/SD/1962/1S-Cl2d assessed as parasite growth inhibition at 50 uM after 24 hrs by AlamarBlue assay (reference value: 0.0 +/- 4.6%); format: functional; settings: read-out: GI
[2] = system: Leishmania donovani; experiment: Antileishmanial activity against axenic amastigote stage of Leishmania donovani MHOM/SD/1962/1S-Cl2d assessed as parasite growth inhibition at 5 uM after 24 hrs by AlamarBlue assay (reference value: 0.0 +/- 0.9%); format: functional; settings: read-out: GI
[3] = system: Leishmania donovani; experiment: Antileishmanial activity against axenic amastigote stage of Leishmania donovani MHOM/SD/1962/1S-Cl2d assessed as parasite growth inhibition after 24 hrs by AlamarBlue assay; format: functional, organism-based
[4] = system: Leishmania donovani; experiment: Antileishmanial activity against axenic amastigote stage of Leishmania donovani MHOM/SD/1962/1S-Cl2d assessed as parasite growth inhibition at 15 uM after 24 hrs by AlamarBlue assay (reference value: 1.5 +/- 3.8%); format: functional; settings: read-out: GI
[5] = system: Leishmania donovani; experiment: Antileishmanial activity against intracellular amastigote stage of Leishmania donovani infected in human THP1 cells assessed as parasite growth inhibition at 5 uM after 48 hrs by luciferase reporter gene assay relative to control; format: functional; settings: THP-1, 48 h, read-out: GI
[6] = system: THP-1; experiment: Cytotoxicity against human THP1 cells assessed as cell viability after 48 hrs by AlamarBlue assay; format: cell-based; settings: THP-1, 48 h
[7] = Selectivity index, ratio of IC50 for human THP1 cells to IC50 for axenic amastigote stage of Leishmania donovani MHOM/SD/1962/1S-Cl2d; format: toxicity, cell-based, THP-1; settings: read-out: Ratio IC50
[8] = system: Leishmania donovani; experiment: Antileishmanial activity against axenic amastigote stage of Leishmania donovani MHOM/SD/1962/1S-Cl2d assessed as parasite growth inhibition at 1 uM after 24 hrs by AlamarBlue assay relative to control; format: functional; settings: read-out: GI
[9] = system: Leishmania donovani; experiment: Antileishmanial activity against intracellular amastigote stage of Leishmania donovani infected in human THP1 cells assessed as parasite growth inhibition at 1 uM after 48 hrs by luciferase reporter gene assay relative to control; format: functional; settings: THP-1, 48 h, read-out: GI

Row | SMILES | inhibition of growth at 50 µM [1] | inhibition of growth at 5 µM [2] | inhibition of growth at 15 µM [4] | other results
1 | C=C(C)[C@@H]1CC[C@]2(C(=O)O)CC[C@]3(C)[C@H](CC[C@@H]4[C@@]5(C)Cc6c[nH]nc6C(C)(C)[C@@H]5CC[C@]43C)[C@@H]12 | 60.2% |  |  | 
2 | C=C(C)[C@@H]1CC[C@]2(C(=O)O)CC[C@]3(C)[C@H](CC[C@@H]4[C@@]5(C)Cc6nccnc6C(C)(C)[C@@H]5CC[C@]43C)[C@@H]12 | 92.7% | 20.3% | 79.7% | IC50 [3]: 13.2 µM
3 | C=C(C)[C@@H]1CC[C@]2(C(N)=O)CC[C@]3(C)[C@H](CC[C@@H]4[C@@]5(C)Cc6nccnc6C(C)(C)[C@@H]5CC[C@]43C)[C@@H]12 | 94.9% |  | 35.2% | 
4 | C=C(C)[C@@H]1CC[C@]2(C(=O)O)CC[C@]3(C)[C@H](CC[C@@H]4[C@@]5(C)CCC(=O)NC(C)(C)[C@@H]5CC[C@]43C)[C@@H]12 | 98.2% | 52% | 75.2% | inhibition of growth at 5 µM [5]: 54%; IC50 [3]: 4.3 µM; IC50 [6]: 55.5 µM; selectivity ratio [7]: 12.9
5 | C=C(C)[C@@H]1CC[C@]2(C(=O)O)CC[C@]3(C)[C@H](CC[C@@H]4[C@@]5(C)Cc6cccnc6C(C)(C)[C@@H]5CC[C@]43C)[C@@H]12 | 87.9% |  | 25.6% | 
6 | C=C(C)[C@@H]1CC[C@]2(C(=O)O)CC[C@]3(C)[C@H](CC[C@@H]4[C@@]5(C)Cc6cnoc6C(C)(C)[C@@H]5CC[C@]43C)[C@@H]12 | 95.7% |  | 15.6% | 
7 | C=C(C)[C@@H]1CC[C@]2(C(N)=O)CC[C@]3(C)[C@H](CC[C@@H]4[C@@]5(C)Cc6cnoc6C(C)(C)[C@@H]5CC[C@]43C)[C@@H]12 | 84.3% |  | 16.7% | 
8 | CC(C)[C@@H]1CC[C@]2(C(=O)O)CC[C@]3(C)[C@H](CC[C@@H]4[C@@]5(C)Cc6cnoc6C(C)(C)[C@@H]5CC[C@]43C)[C@@H]12 | 2.4% |  |  | 
9 | C=C(C)[C@@H]1CC[C@]2(COC(C)=O)CC[C@]3(C)[C@H](CC[C@@H]4[C@@]5(C)Cc6cnoc6C(C)(C)[C@@H]5CC[C@]43C)[C@@H]12 | 6.1% |  |  | 
10 | C=C(C)[C@@H]1CC[C@]2(C=O)CC[C@]3(C)[C@H](CC[C@@H]4[C@@]5(C)Cc6cnoc6C(C)(C)[C@@H]5CC[C@]43C)[C@@H]12 | 34.2% |  | 21.1% | 
11 | CC1(C)CC[C@]23CC[C@]4(C)[C@H](CC[C@@H]5[C@@]6(C)Cc7c([nH]c8ccccc78)C(C)(C)[C@@H]6CC[C@]54C)[C@H]2[C@H]1OC3 | 19.8% |  | 18.5% | 
12 | CC1(C)CC[C@]23CC[C@]4(C)[C@H](CC[C@@H]5[C@@]6(C)Cc7c([nH]c8ccc(F)cc78)C(C)(C)[C@@H]6CC[C@]54C)[C@H]2[C@H]1OC3 | 6.8% | 0.2% | 10.2% | 
13 | C=C(C)[C@@H]1CC[C@]2(/C=N/O)CC[C@]3(C)[C@H](CC[C@@H]4[C@@]5(C)Cc6nccnc6C(C)(C)[C@@H]5CC[C@]43C)[C@@H]12 | 2.8% |  |  | 
14 | C=C(C)[C@@H]1CC[C@]2(CO)CC[C@]3(C)[C@H](CC[C@@H]4[C@@]5(C)Cc6cnoc6C(C)(C)[C@@H]5CC[C@]43C)[C@@H]12 | 56.9% |  |  | 
15 | C=C(C)[C@@H]1CC[C@]2(C(=O)O)CC[C@]3(C)[C@H](CC[C@@H]4[C@@]5(C)Cc6c([nH]c7ccccc67)C(C)(C)[C@@H]5CC[C@]43C)[C@@H]12 | 23.4% | 5% | 27.4% | 
16 | C=C(C)[C@@H]1CC[C@]2(C(=O)O)CC[C@]3(C)[C@H](CC[C@@H]4[C@@]5(C)Cc6c([nH]c7ccc(OC)cc67)C(C)(C)[C@@H]5CC[C@]43C)[C@@H]12 | 29.3% | 14% | 17.5% | 
17 | C[C@@H]1[C@H](O)[C@@H](C)/C=C/C=C/C=C/C=C/C=C/C=C/C=C/[C@H](O[C@@H]2O[C@H](C)[C@@H](O)[C@H](N)[C@@H]2O)C[C@@H]2O[C@](O)(C[C@@H](O)C[C@@H](O)[C@H](O)CC[C@@H](O)C[C@@H](O)CC(=O)O[C@H]1C)C[C@H](O)[C@H]2C(=O)O [AMPHOTERICIN B] |  |  |  | inhibition of growth at 1 µM [8]: 99.9%; inhibition of growth at 1 µM [9]: 96.7%
18 | C=C(C)[C@@H]1CC[C@]2(C(=O)O)CC[C@]3(C)[C@H](CC[C@@H]4[C@@]5(C)CC[C@H](O)C(C)(C)[C@@H]5CC[C@]43C)[C@@H]12 [BETULINIC ACID] | 61.1% |  |  | 
19 | C=C(C)[C@@H]1CC[C@]2(C(=O)O)CC[C@]3(C)[C@H](CC[C@@H]4[C@@]5(C)CCC(=O)C(C)(C)[C@@H]5CC[C@]43C)[C@@H]12 [BETUNOLIC ACID] | 98.6% |  | 45.9% | 
20 | C=C(C)[C@@H]1CC[C@]2(C(=O)O)CC[C@]3(C)[C@H](CC[C@@H]4[C@@]5(C)CC[C@H](OC(=O)CC(C)(C)C(=O)O)C(C)(C)[C@@H]5CC[C@]43C)[C@@H]12 [BEVIRIMAT] | 100% | 59% | 69.1% | IC50 [3]: 7.2 µM; IC50 [6]: 54 µM; selectivity ratio [7]: 7.5
